Data: patent US12005123B2, “Conjugate of isotretinoin and peptide” (CAREGEN CO., LTD., priority 2017, dated 2024)
Like-named read-outs stand apart in the source and are kept apart here.

What was measured:
[1] = cited from earlier work
[2] = background statement; cited from earlier work
[3] = Solubility test in distilled water; type: physicochemical; details: 10 mg/ml, FIG. 1

Row | SMILES | blood concentration of active metabolite versus isotretinoin ([1]; 6 hours after administration) | fasting bioavailability ([1]; fasting) | time to reach the highest blood concentration ([1]; oral administration) [h] | solubility in water [2] | solubility in water [3]
1 | CC1=C(/C=C/C(C)=C/C=C/C(C)=C/C(=O)O)C(C)(C)CCC1=O [4-oxo-isotretinoin] | higher than the blood concentration of isotretinoin |  |  |  | 
2 | CC1=C(/C=C/C(C)=C/C=C/C(C)=C\C(=O)O)C(C)(C)CCC1 [isotretinoin, 13-cis-retinoic acid] |  | about 20% | 2 to 4 | low | hardly dissolved in water
